Measurements: ChEMBL document CHEMBL1201862, “PubChem BioAssay data set” (2004)
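Following 48 hours of exposure in 96-well plates, responses at five concentrations were used to interpolate endpoints linearly. GI50 is the concentration that inhibits growth by half.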 Calls of active or inactive are those of the source. Rule as the data show it: active = GI50 up to about 1.1 µM and inactive = higher.

Columns and labels:
Assay in all cases: DTP human tumour cell line panel, 48 h
[1] = system: NCI-H23
[2] = system: SK-MEL-2
[3] = system: TK-10
[4] = system: NCI-H460
[5] = system: COLO 205
[6] = system: CAKI-1
[7] = system: SK-OV-3
[8] = system: NCI-H522
[9] = system: HT-29
[10] = system: SNB-75
[11] = system: NCI-H226
[12] = system: ACHN
[13] = system: HCC 2998
[14] = system: OVCAR-5
[15] = system: SF-295
[16] = system: SNB-19
[17] = system: A549
[18] = system: HL-60

| Structure (SMILES) | GI50 [1] | GI50 [2] | GI50 [3] | GI50 [4] | GI50 [5] | GI50 [6] | GI50 [7] | GI50 [8] | GI50 [9] | GI50 [10] | GI50 [11] | GI50 [12] | GI50 [13] | GI50 [14] | GI50 [15] | GI50 [16] | GI50 [17] | GI50 [18] |
| --- | --- | --- | --- | --- | --- | --- | --- | --- | --- | --- | --- | --- | --- | --- | --- | --- | --- | --- |
| Cn1cc(NC(=O)c2cc(NC(=O)CCCCCCCCCCC(=O)Nc3cc(C(=O)Nc4cc(C(=O)NCCC(=N)N)n(C)c4)n(C)c3)cn2C)cc1C(=O)NCCC(=N)N | 32 µM (inactive) | 35.8 µM (inactive) | 29.4 µM (inactive) | 18.6 µM (inactive) | 9.73 µM (inactive) | 46.8 µM (inactive) | > 100 µM (inactive) | 12.1 µM (inactive) | 29.1 µM (inactive) | > 100 µM (inactive) | > 100 µM (inactive) | 29.9 µM (inactive) | 19 µM (inactive) | 67.3 µM (inactive) | 50.8 µM (inactive) | 34.4 µM (inactive) | 22.2 µM (inactive) |  |
| CC1=CC(N2C(=O)C(C)=CC2O)NC1=O (stereo not given) | > 100 µM (inactive) | > 100 µM (inactive) | > 100 µM (inactive) | > 100 µM (inactive) | > 100 µM (inactive) | > 100 µM (inactive) |  | > 100 µM (inactive) | > 100 µM (inactive) | > 100 µM (inactive) | > 100 µM (inactive) |  | > 100 µM (inactive) | > 100 µM (inactive) | > 100 µM (inactive) | > 100 µM (inactive) | > 100 µM (inactive) | > 100 µM (inactive) |
| Cc1cc(N(CCC#N)CCC#N)ccc1/C=C1/CN(N2C(=O)/C(=C/c3ccc(N(CCC#N)CCC#N)cc3C)N=C2c2ccccc2)C(c2ccccc2)=N1 | 42.8 µM (inactive) |  | 26.5 µM (inactive) | > 100 µM (inactive) | > 100 µM (inactive) | > 100 µM (inactive) |  | > 100 µM (inactive) | > 100 µM (inactive) | 16.9 µM (inactive) | > 100 µM (inactive) | > 100 µM (inactive) | > 100 µM (inactive) | > 100 µM (inactive) | 48.8 µM (inactive) | 41 µM (inactive) | > 100 µM (inactive) | > 100 µM (inactive) |
| O=c1/c(=C/c2ccccc2O)sc2nc3ccccc3n12 | 38.7 µM (inactive) | 32.3 µM (inactive) | > 100 µM (inactive) | 35 µM (inactive) |  | 34.6 µM (inactive) |  |  | 43.2 µM (inactive) | 84.9 µM (inactive) | 52.1 µM (inactive) | 45.6 µM (inactive) | 55.8 µM (inactive) | > 100 µM (inactive) | 34.3 µM (inactive) | 80.7 µM (inactive) | 41.8 µM (inactive) | 4.9 µM (inactive) |
| O=c1nc(/C=C/c2ccccc2Cl)cc2n1CCN2CCO |  | 72.3 µM (inactive) | > 100 µM (inactive) | > 100 µM (inactive) | > 100 µM (inactive) | > 100 µM (inactive) | 43.8 µM (inactive) | 24.3 µM (inactive) | > 100 µM (inactive) | 26.3 µM (inactive) | 97.9 µM (inactive) | > 100 µM (inactive) |  | > 100 µM (inactive) | > 100 µM (inactive) | < 0.01 µM (active) |  | > 100 µM (inactive) |
| COc1nc2c(nc(N)n2C2OCC(O)C(O)C2O)c(=O)n1C (stereo not given) | > 100 µM (inactive) |  | > 100 µM (inactive) | > 100 µM (inactive) | > 100 µM (inactive) | > 100 µM (inactive) | > 100 µM (inactive) | > 100 µM (inactive) | > 100 µM (inactive) | > 100 µM (inactive) | > 100 µM (inactive) | > 100 µM (inactive) | > 100 µM (inactive) |  | > 100 µM (inactive) | > 100 µM (inactive) | > 100 µM (inactive) | > 100 µM (inactive) |
| COC(=O)CCSC(=O)Nc1ccc(/N=N/c2ccccc2)cc1 | 34.2 µM (inactive) |  | 61.8 µM (inactive) | 31.6 µM (inactive) | 20.3 µM (inactive) | 98.4 µM (inactive) | > 100 µM (inactive) |  | 68.5 µM (inactive) | 31 µM (inactive) | 60.4 µM (inactive) | 29 µM (inactive) | 23.6 µM (inactive) | 71.1 µM (inactive) | 47.9 µM (inactive) | 32.1 µM (inactive) | 76.4 µM (inactive) |  |
| CC1(C)OC2C(=O)OC(COCc3ccccc3)C2O1 (stereo not given) | > 100 µM (inactive) | > 100 µM (inactive) | > 100 µM (inactive) | > 100 µM (inactive) | > 100 µM (inactive) | > 100 µM (inactive) |  |  | > 100 µM (inactive) | > 100 µM (inactive) | > 100 µM (inactive) | > 100 µM (inactive) | > 100 µM (inactive) | > 100 µM (inactive) | > 100 µM (inactive) |  | > 100 µM (inactive) | > 100 µM (inactive) |
| Cc1cc(CC(=O)NCCO)n(CCO)c(=O)c1 | > 100 µM (inactive) |  | > 100 µM (inactive) | > 100 µM (inactive) | > 100 µM (inactive) | > 100 µM (inactive) |  | > 100 µM (inactive) | > 100 µM (inactive) | 84.1 µM (inactive) |  | > 100 µM (inactive) | > 100 µM (inactive) | > 100 µM (inactive) | > 100 µM (inactive) | > 100 µM (inactive) | > 100 µM (inactive) | > 100 µM (inactive) |
